Experimental data reported in ChEMBL document CHEMBL1122789, “Synthesis and biological activity of structural analogues of the anticancer benzophenanthridine alkaloid nitidine chloride” (1984).

Key:
[1] = tested on: B16; assay: Evaluated for anticancer activity in survival tumor system B16 melanocarcinoma at dose 100 mg/kg; format: functional, Mus musculus
[2] = tested on: B16; assay: Evaluated for anticancer activity in survival tumor system B16 melanocarcinoma at a dose of 100 mg/kg, value was reported as weight difference; format: functional, Mus musculus
[3] = tested on: B16; assay: Evaluated for anticancer activity in survival tumor system B16 melanocarcinoma at a dose of 12.5 mg/kg, value was reported as weight difference; format: functional, Mus musculus
[4] = tested on: B16; assay: Evaluated for anticancer activity in survival tumor system B16 melanocarcinoma at a dose of 25 mg/kg, value was reported as weight difference; format: functional, Mus musculus
[5] = tested on: B16; assay: Evaluated for anticancer activity in survival tumor system B16 melanocarcinoma at a dose of 6.25 mg/kg, value was reported as weight difference; format: functional, Mus musculus
[6] = tested on: B16; assay: Evaluated for anticancer activity in survival tumor system B16 melanocarcinoma at a dose of 12.5 mg/kg; Number of Tested survived/number of control survived (9/10); format: functional, Mus musculus
[7] = Evaluated for anticancer activity in tumor inhibition system CD8F1 mammary tumors at a dose of 250 mg/kg; number of Tested survived/number of control survived; format: functional, Mus musculus
[8] = Evaluated for anticancer activity in tumor inhibition system CD8F1 mammary tumor at dose 62 mg/kg; format: functional, Mus musculus
[9] = Evaluated for anticancer activity in tumor inhibition system CD8F mammary tumor at a dose of 125 mg/kg, value was reported as weight difference; format: functional, Mus musculus
[10] = tested on: L1210; assay: Evaluated for anticancer activity in survival tumor system L1210 lymphoid leukemia at a dose of 100 mg/kg, value was reported as weight difference; format: functional, Mus musculus
[11] = tested on: L1210; assay: Evaluated for anticancer activity in survival tumor system L1210 lymphoid leukemia at a dose of 12.5 mg/kg, value was reported as weight difference; format: functional, Mus musculus
[12] = tested on: L1210; assay: Evaluated for anticancer activity in survival tumor system L1210 lymphoid leukemia at a dose of 25 mg/kg, value was reported as weight difference; format: functional, Mus musculus
[13] = tested on: L1210; assay: Evaluated for anticancer activity in survival tumor system L1210 lymphoid leukemia at a dose of 50 mg/kg, value was reported as weight difference; format: functional, Mus musculus
[14] = tested on: L1210; assay: Evaluated for anticancer activity in survival tumor system L1210 lymphoid leukemia at dose 12.5 mg/kg; format: functional, Mus musculus
[15] = tested on: L1210; assay: Evaluated for anticancer activity in survival tumor system L1210 lymphoid leukemia at a dose of 25 mg/kg; Number of Tested survived/number of control survived (6/6); format: functional, Mus musculus
[16] = tested on: L1210; assay: Evaluated for anticancer activity in survival tumor system L1210 lymphoid leukemia at a dose of 3.125 mg/kg; Number of Tested survived/number of control survived (6/6); format: functional, Mus musculus
[17] = tested on: L1210; assay: Evaluated for anticancer activity in survival tumor system L1210 lymphoid leukemia at a dose of 50 mg/kg; Number of Tested survived/number of control survived (6/6); format: functional, Mus musculus
[18] = tested on: Lewis lung carcinoma cell line; assay: Evaluated for anticancer activity in survival tumor system Lewis lung (LL) carcinoma at dose 100 mg/kg; format: functional, Mus musculus
[19] = tested on: Lewis lung carcinoma cell line; assay: Evaluated for anticancer activity in survival tumor system Lewis lung (LL) carcinoma at dose 25 mg/kg; format: functional, Mus musculus
[20] = tested on: L1210; assay: Evaluated for anticancer activity in survival tumor system L1210 lymphoid leukemia at dose 3.12 mg/kg; format: functional, Mus musculus
[21] = tested on: Lewis lung carcinoma cell line; assay: Evaluated for anticancer activity in survival tumor system Lewis lung (LL) carcinoma at a dose of 25 mg/kg; number of Tested survived/number of control survived; format: functional, Mus musculus
[22] = tested on: Lewis lung carcinoma cell line; assay: Evaluated for anticancer activity in survival tumor system tumor system Lewis lung (LL) carcinoma at a dose of 100 mg/kg; Number of Tested survived/number of control survived (10/10); format: functional, Mus musculus
[23] = tested on: Lewis lung carcinoma cell line; assay: Evaluated for anticancer activity in survival tumor system tumor system Lewis lung (LL) carcinoma at a dose of 200 mg/kg; Number of Tested survived/number of control survived (2/10); format: functional, Mus musculus
[24] = tested on: MX1; assay: Evaluated for anticancer activity in tumor inhibition system MX-1 breast xenograph at a dose of 600 mg/kg; Number of Tested survived/number of control survived (0/6); format: functional, Homo sapiens
[25] = tested on: MX1; assay: Evaluated for anticancer activity in tumor inhibition system MX-1 breast xenograph at a dose of 75 mg/kg; Number of Tested survived/number of control survived (4/6); format: functional, Homo sapiens
[26] = tested on: MX1; assay: Evaluated for anticancer activity in tumor inhibition system MX-1 breast xenograph at a dose of 150mg/kg, value was reported as weight difference; format: functional, Homo sapiens
[27] = tested on: Lewis lung carcinoma cell line; assay: Evaluated for anticancer activity in survival tumor system Lewis lung (LL) carcinoma at a dose of 100 mg/kg, value was reported as weight difference; format: functional, Mus musculus
[28] = tested on: Lewis lung carcinoma cell line; assay: Evaluated for anticancer activity in survival tumor system Lewis lung (LL) carcinoma at a dose of 25 mg/kg, value was reported as weight difference; format: functional, Mus musculus
[29] = tested on: Lewis lung carcinoma cell line; assay: Evaluated for anticancer activity in survival tumor system Lewis lung (LL) carcinoma at a dose of 50 mg/kg, value was reported as weight difference; format: functional, Mus musculus
[30] = tested on: P388; assay: Evaluated for anticancer activity in survival tumor system P388 lymphocytic leukemia at dose 12.5 mg/kg; format: functional, Mus musculus
[31] = tested on: P388; assay: Evaluated for anticancer activity in survival tumor system P388 lymphocytic leukemia at a dose of 200 mg/kg; Number of Tested survived/number of control survived (0/6); format: functional, Mus musculus
[32] = tested on: P388; assay: Evaluated for anticancer activity in survival tumor system P388 lymphocytic leukemia at a dose of 25 mg/kg;Number of Tested survived/number of control survived (5/6); format: functional, Mus musculus
[33] = tested on: P388; assay: Evaluated for anticancer activity in survival tumor system P388 lymphocytic leukemia at a dose of 50 mg/kg, value was reported as weight difference; format: functional, Mus musculus
[34] = Evaluated for anticancer activity in tumor inhibition system colon 38 at a dose of 200 mg/kg, value was reported as weight difference; format: functional, Mus musculus
[35] = Evaluated for anticancer activity in tumor inhibition system colon 38 at a dose of 400 mg/kg, value was reported as weight difference; format: functional, Mus musculus
[36] = Evaluated for anticancer activity in tumor inhibition system colon 38 tumors at a dose of 100 mg/kg; Number of Tested survived/number of control survived (10/10); format: functional, Mus musculus
[37] = Evaluated for anticancer activity in tumor inhibition system colon 38 tumors at a dose of 200 mg/kg; Number of Tested survived/number of control survived (10/10); format: functional, Mus musculus
[38] = Evaluated for anticancer activity in tumor inhibition system colon 38 tumors at a dose of 400 mg/kg; Number of Tested survived/number of control survived (10/10); format: functional, Mus musculus
[39] = Evaluated for anticancer activity in tumor inhibition system colon 38 tumors at a dose of 800 mg/kg; Number of Tested survived/number of control survived (0/10); format: functional, Mus musculus
[40] = Evaluated for anticancer activity in tumor inhibition system colon 38 tumor at dose 200 mg/kg; format: functional, Mus musculus
[41] = Evaluated for anticancer activity in tumor inhibition system colon 38 tumor at dose 400 mg/kg; format: functional, Mus musculus
[42] = Evaluated for anticancer activity in tumor inhibition system colon 38 tumor at dose 50 mg/kg; format: functional, Mus musculus
[43] = tested on: L1210; assay: Evaluated for anticancer activity in survival tumor system L1210 lymphoid leukemia at dose 25 mg/kg; conditions: Mus musculus

COc1cc2c[n+](C)c3c(c2cc1OC)Cc1cc2c(cc1-3)OCO2.[Cl-]
T/C [1]: 120%
Weight change [2]: -4.6
Weight change [3]: -1
Weight change [4]: -2.5
Weight change [5]: -0.5
Survival [6]: 9
Survival [7]: 2
T/C [8]: 92%
Weight change [9]: -3.2
Weight change [10]: -5.8
Weight change [11]: -2.6
Weight change [12]: -5.4
Weight change [13]: -5.8
T/C [14]: 156%
Survival [15]: 6
Survival [16]: 6
Survival [17]: 6
T/C [18]: 51%
T/C [19]: 114%
T/C [20]: 129%
Survival [21]: 10
Survival [22]: 10
Survival [23]: 2
Survival [24]: 0
Survival [25]: 4
Weight change [26]: -6
Weight change [27]: -3.8
Weight change [28]: -2.4
Weight change [29]: -2.6
T/C [30]: 134%
Survival [31]: 0
Survival [32]: 5
Weight change [33]: -5
Weight change [34]: -4.3
Weight change [35]: -6.2
Survival [36]: 10
Survival [37]: 10
Survival [38]: 10
Survival [39]: 0
T/C [40]: 97%
T/C [41]: 85%
T/C [42]: 94%
T/C [43]: 165%
